Data from publication PMC6152123, “Sites for Dynamic Protein-Carbohydrate Interactions of O- and C-Linked Mannosides on the E. coli FimH Adhesin” (Molecules : A Journal of Synthetic Chemistry and Natural …, 2017).
Where two headings read alike, the source gives them in different places.

Tests used:
FimH lectin domain [1] = molecular target: T1, FimH lectin domain (Escherichia coli, UniProt P08191); experiment: biochemical; type: binding, E. coli strain J96; settings: for fold by which inhibition potential exceeds parent 115: Table 5; for Kd SPR (nM): Table S2
FimH = settings: Table S2; read-out: Kd ITC (converted); cited from earlier work
FimH lectin domain [2] = molecular target: T1, FimH lectin domain; settings: cited from earlier work
[3] = Kd (nM), Table 4, SPR detection, sulfonamide and amide spacers
[4] = Kd (nM), Table 5, SPR, C-linked mannopyranosides
[5] = Kd SPR (nM), solution affinity by SPR competition, Tables 1-3
[6] = Table 5, SPR, C-linked mannopyranosides

T1 sequence (P08191 22-179 limits assumed): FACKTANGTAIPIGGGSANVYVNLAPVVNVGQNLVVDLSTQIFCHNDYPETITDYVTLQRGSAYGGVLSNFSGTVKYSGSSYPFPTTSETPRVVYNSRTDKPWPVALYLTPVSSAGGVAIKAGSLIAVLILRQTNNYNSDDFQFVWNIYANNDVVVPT

O=S(=O)(NCCO[C@H]1O[C@H](CO)[C@@H](O)[C@H](O)[C@@H]1O)c1ccccc1 [Compound 70]
Kd (FimH lectin domain [1]; [3]): 146 ± 26 nM

O=[N+]([O-])c1ccc(S(=O)(=O)NCCO[C@H]2O[C@H](CO)[C@@H](O)[C@H](O)[C@@H]2O)cc1 [Compound 71]
Kd (FimH lectin domain [1]; [3]): 408 ± 52 nM

Cc1ccc(S(=O)(=O)NCCO[C@H]2O[C@H](CO)[C@@H](O)[C@H](O)[C@@H]2O)cc1 [Compound 72]
Kd (FimH lectin domain [1]; [3]): 168 ± 64 nM

CC(C)(C)c1ccc(S(=O)(=O)NCCO[C@H]2O[C@H](CO)[C@@H](O)[C@H](O)[C@@H]2O)cc1 [Compound 73]
Kd (FimH lectin domain [1]; [3]): 122 ± 11 nM

CC(C)c1cc(C(C)C)c(S(=O)(=O)NCCO[C@H]2O[C@H](CO)[C@@H](O)[C@H](O)[C@@H]2O)c(C(C)C)c1 [Compound 74]
Kd (FimH lectin domain [1]; [3]): 37 ± 5 nM

O=S(=O)(NCCO[C@H]1O[C@H](CO)[C@@H](O)[C@H](O)[C@@H]1O)c1cccc2ccccc12 [Compound 75]
Kd (FimH lectin domain [1]; [3]): 148 ± 18 nM

C=CC[C@H]1O[C@H](CO)[C@@H](O)[C@H](O)[C@@H]1O [Compound 78]
Kd (FimH lectin domain [1]; [4]): 118 ± 20 nM

O=C(C[C@H]1O[C@H](CO)[C@@H](O)[C@H](O)[C@@H]1O)Nc1ccccc1 [Compound 91]
Kd (FimH lectin domain [1]; [3]): 372 ± 26 nM

O=C(C[C@H]1O[C@H](CO)[C@@H](O)[C@H](O)[C@@H]1O)NCc1ccccc1 [Compound 92]
Kd (FimH lectin domain [1]; [3]): 397 ± 83 nM

O=C(C[C@H]1O[C@H](CO)[C@@H](O)[C@H](O)[C@@H]1O)NCCCc1ccccc1 [Compound 93]
Kd (FimH lectin domain [1]; [3]): 105 ± 44 nM
fold rise of FimH inhibitory capacity versus 91 and 92 (FimH lectin domain [1]; SPR Kd): 4 fold

CC(=O)Nc1ccc(NC(=O)C[C@H]2O[C@H](CO)[C@@H](O)[C@H](O)[C@@H]2O)cc1 [Compound 94]
Kd (FimH lectin domain [1]; [3]): 227 ± 54 nM

O=C(C[C@H]1O[C@H](CO)[C@@H](O)[C@H](O)[C@@H]1O)Nc1ccc(O)cc1 [Compound 95]
Kd (FimH lectin domain [1]; [3]): 328 ± 63 nM

O=C(C[C@H]1O[C@H](CO)[C@@H](O)[C@H](O)[C@@H]1O)NCCc1ccc(O)cc1 [Compound 96]
Kd (FimH lectin domain [1]; [3]): 970 ± 382 nM

OC[C@H]1O[C@H](CCCSCc2ccccc2)[C@@H](O)[C@@H](O)[C@@H]1O [Compound 106]
Kd (FimH lectin domain [1]; [5]): 25 ± 6.3 nM

CCCCSCCC[C@H]1O[C@H](CO)[C@@H](O)[C@H](O)[C@@H]1O [Compound 107]
Kd (FimH lectin domain [1]; [5]): 22 ± 2.8 nM

CCCSCCC[C@H]1O[C@H](CO)[C@@H](O)[C@H](O)[C@@H]1O [Compound 108]
Kd (FimH lectin domain [1]; [5]): 36 ± 9 nM

CCSCCC[C@H]1O[C@H](CO)[C@@H](O)[C@H](O)[C@@H]1O [Compound 109]
Kd (FimH lectin domain [1]; [5]): 78 ± 5.6 nM

CC(C)SCCC[C@H]1O[C@H](CO)[C@@H](O)[C@H](O)[C@@H]1O [Compound 110]
Kd (FimH lectin domain [1]; [5]): 32 ± 4.1 nM

OC[C@H]1O[C@H](C/C=C/c2ccccc2)[C@@H](O)[C@@H](O)[C@@H]1O [Compound 115]
Kd (FimH lectin domain [1]; [4]): 182 ± 25 nM
fold more active than amide-linked analog 91 (FimH lectin domain [1]; SPR Kd): 2 fold

OC[C@H]1O[C@H](C/C=C/c2ccc(-c3ccccc3)cc2)[C@@H](O)[C@@H](O)[C@@H]1O [Compound 116]
Kd (FimH lectin domain [1]; [4]): 17 ± 3.5 nM
fold by which inhibition potential exceeds parent 115 (FimH lectin domain [1]; SPR Kd): ~4 fold
Kd (FimH): 58 ± 14 nM

OC[C@H]1O[C@H](C/C=C/c2ccccc2-c2ccccc2)[C@@H](O)[C@@H](O)[C@@H]1O [Compound 117]
Kd (FimH lectin domain [1]; [4]): 6.9 ± 5.7 nM
fold by which inhibition potential exceeds parent 115 (FimH lectin domain [1]; SPR Kd): ~26 fold

OC[C@H]1O[C@H](C/C=C/c2cccc3ccccc23)[C@@H](O)[C@@H](O)[C@@H]1O [Compound 118]
Kd (nM) (FimH lectin domain [1]; [6]): nf
Kd SPR (nM) (FimH lectin domain [1]): nf
Kd (FimH): 23 ± 5.5 nM

OC[C@H]1O[C@H](CCCc2ccccc2)[C@@H](O)[C@@H](O)[C@@H]1O [Compound 119]
Kd (FimH lectin domain [1]; [4]): 49 ± 5.3 nM

OC[C@H]1O[C@H](CCCc2ccc(-c3ccccc3)cc2)[C@@H](O)[C@@H](O)[C@@H]1O [Compound 120]
Kd (nM) (FimH lectin domain [1]; [6]): nf
Kd SPR (nM) (FimH lectin domain [1]): nf

OC[C@H]1O[C@H](CCCc2ccccc2-c2ccccc2)[C@@H](O)[C@@H](O)[C@@H]1O [Compound 121]
Kd (FimH lectin domain [1]; [4]): 123 ± 21 nM

OC[C@H]1O[C@H](CCCc2cccc3ccccc23)[C@@H](O)[C@@H](O)[C@@H]1O [Compound 122]
Kd (nM) (FimH lectin domain [1]; [6]): nf
Kd SPR (nM) (FimH lectin domain [1]): nf

CCC[C@H]1O[C@H](CO)[C@@H](O)[C@H](O)[C@@H]1O [Compound 123]
Kd (FimH lectin domain [1]; [4]): 266 ± 26 nM

CCCCCCO[C@H]1O[C@H](CO)[C@@H](O)[C@H](O)[C@@H]1O [hexyl]
Kd (FimH lectin domain [2]; solution affinity by SPR, read-out: Kd SPR): 10 nM

CC(=O)N[C@H]1[C@H](O[C@H]2[C@H](O)[C@@H](NC(C)=O)C(O)O[C@@H]2CO)O[C@H](CO)[C@@H](O[C@@H]2O[C@H](CO[C@H]3O[C@H](CO)[C@@H](O)[C@H](O)[C@@H]3O)[C@@H](O)[C@H](O[C@H]3O[C@H](CO)[C@@H](O)[C@H](O)[C@@H]3O)[C@@H]2O)[C@@H]1O (stereo partly shown) [oligomannoside-3, reference compound]
KA (FimH lectin domain [1]; Figure S19, fit of solution affinity model to inhibition curve): 49462067.1 M⁻¹
Kd (FimH lectin domain [1]; Figure S19, fit of solution affinity model to inhibition curve, read-out: KD): 20.2 nM
Kd (FimH lectin domain [2]; highest-affinity natural epitope for FimH, Fab IC10 chip, read-out: Kd): 20 nM
